Assay results published in patent publication US20230285504A1, “INHIBITION OF REPERFUSION INJURY WITH A PSD-95 INHIBITOR” (NONO INC., priority 2020, published 2023).
No end group written: not given here.

System: transient middle cerebral artery occlusion (tMCAO)
Experiment: Dose-response study of nerinetide in transient middle cerebral artery occlusion
Type: in vivo
Settings: rat tMCAo
Method: FIGS. 9A-B: Nerinetide is effective over a dosage range of at least 0.025-25 mg/kg in a rat tMCAo model in (A) reducing infarction size and (B) reducing neurologic deficit.
The cleavage of full-length nerinetide by high dose alteplase was incomplete, raising the possibility that some active drug could still remain to achieve neuroprotection. This was supported in rats by a dose-response study of nerinetide in a model of transient middle cerebral artery occlusion (tMCAO). Nerinetide and lodoxamide was administered to rats intravenously as a bolus injection, 60 minutes after tMCAo. […] Bars in A and represent mean±SD, with all individual data points plotted. […] Vehicle: PBS alone. Scrambled: ADA peptide incapable of binding PSD-95. Doses as low as 0.25 mg/kg produced a significant reduction in infarct volume (P=0.01) and an improvement in neurological function. Doses as low as 0.025 mg/kg were also effective. Doses up to at least 25 mg/kg were also effective with the highest efficacy being at about 15 mg/kg. The observed wide therapeutic range was attributable to nerinetide, and not to the mast cell degranulation inhibitor lodoxamide, which was present in all solutions to avoid potential hypotension due to histamine release.

YGRKKRRQRRRKLSSIESDV [nerinetide]
dose of highest efficacy (24 hours): about 15 mg/kg | lowest dose also effective (24 hours, doses as low as): 0.025 mg/kg | upper dose also effective (24 hours, doses up to at least): at least 25 mg/kg | dose producing significant reduction in infarct volume (P=0.01) and improvement in neurological function (iv bolus with lodoxamide 60 minutes after tMCAo, 24 hours, doses as low as): 0.25 mg/kg | effective dosage range (reducing infarction size and neurologic deficit) (iv bolus with lodoxamide 60 minutes after tMCAo, read 24 hours): 0.025-25 mg/kg
